Measured values from PMC8482815, “Targeting Host Glycolysis as a Strategy for Antimalarial Development” (Frontiers in Cellular and Infection Microbiology, 2021).
“And” between values parts separate entries of the source, which are not always exact repeats. Identical values can stand only once.

Tested on: human erythrocytes
Assay: Untargeted metabolomics and 13C-glucose tracing of enolase inhibitor treated erythrocytes
Format: cell-based
Conditions: 6h
Procedure: Freshly collected erythrocytes were washed, resuspended to 10% hematocrit in buffer [25mM HEPES (pH 7.4), 120mM NaCl, 5.4mM KCl, 1.8mM CaCl2, and 1mM NaH2PO4], incubated for 1 hour at 37°C, then centrifuged at 2000xg for 5 minutes at 4°C, resuspended in fresh wash buffer to 30-40% hematocrit, and split into 210µL aliquots of packed erythrocytes. […] All samples were incubated at 37°C shaking at 500 RPM. Triplicate samples of supernatants and packed erythrocytes were collected at 0, 0.5, 1, and 6-hour intervals and snap-frozen in liquid N2.
RBC and media samples were extracted at 1:10 and 1:20 dilutions, respectively, in 5:3:2 MeOH : MeCN:H2O v/v/v, and supernatants analyzed on a Thermo Vanquish UHPLC coupled to a Thermo Q Exactive mass spectrometer, as extensively described ([Nemkov et al., 2015]; [Nemkov et al., 2017]). The extraction buffer was supplemented with 40uM 3-^13C lactate to allow absolute quantification of lactate isotopologues, including lactate generated via glycolysis ([1,2,3-^13C3] enriched) vs. the pentose phosphate pathway ([2,3-^13C2] enriched), as described ([Reisz et al., 2016]). Metabolite assignments, peak area integration and isotopologues distributions were determined using Maven (Princeton University) ([Nemkov et al., 2015]; [Nemkov et al., 2017]).
Data were auto-scaled and normalized to zero-hour time points. Metabolites were removed from the dataset if greater than 50% of the samples contained missing values or the relative standard deviation among replicates exceeded 25%. Additionally, data was filtered using the interquartile range to reduce near-constant values from the experiment by 5%.
A principal component analysis of preprocessed data was plotted with the 95% confidence interval minimum volume enclosing ellipsoid for each respective group (MetaboAnalyst, cluster, plotly). A two-way repeated measures analysis of variance (ANOVA) was performed with multiple comparisons corrected for using a false discovery rate p-value cutoff of 0.05. Metabolite-Pathway analysis was performed using the R package of MetaboAnalyst, as previously described ([Xia and Wishart, 2010]). Metabolite-Protein nodal analysis was performed using omicsnet.ca and as previously described ([Zhou and Xia, 2018]).

[1] = treated erythrocytes, one value per replicate sample, polarity +
[2] = treated erythrocytes, one value per replicate sample, polarity -
[3] = treated erythrocytes, replicate samples

CC(C)(C)C(=O)OCOP(=O)(OCOC(=O)C(C)(C)C)C1CCCN(O)C1=O (stereo not shown) [POMHEX]
AMP level (metabolomics signal) (replicate samples): 3.72E+05 and 4.97E+05 and 4.88E+05 | ATP level (metabolomics signal) (replicate samples): 1.06E+05 and 4.51E+04 and 2.86E+04 | Adenine level (metabolomics signal) (replicate samples): 1.10E+05 and 1.13E+05 and 1.03E+05 | Cytosine level (metabolomics signal) (replicate samples): 0.00E+00 | L-alanine level (metabolomics signal) (replicate samples): 7.74E+06 and 6.77E+06 and 7.99E+06 | L-arginine level (metabolomics signal) (replicate samples): 4.96E+06 and 6.71E+06 and 3.72E+06 | L-asparagine level (metabolomics signal) (replicate samples): 5.50E+06 and 5.88E+06 and 6.25E+06 | L-aspartate level (metabolomics signal) (replicate samples): 1.08E+07 and 1.19E+07 and 1.12E+07 | L-cysteine level (metabolomics signal) (replicate samples): 4.98E+05 and 5.97E+05 and 1.05E+06 | L-glutamate level (metabolomics signal) (replicate samples): 5.99E+06 and 6.14E+06 and 6.66E+06 | L-glutamine level (metabolomics signal) (replicate samples): 6.37E+07 and 6.26E+07 and 6.35E+07 | L-histidine level (metabolomics signal) (replicate samples): 1.60E+06 and 1.47E+06 and 1.87E+06 | L-isoleucine level (metabolomics signal) (replicate samples): 1.28E+07 and 1.42E+07 and 1.14E+07 | L-leucine level (metabolomics signal) (replicate samples): 1.47E+08 (2×) and 1.27E+08 | L-lysine level (metabolomics signal) (replicate samples): 1.47E+06 and 1.24E+06 and 1.45E+06 | L-methionine level (metabolomics signal) (replicate samples): 1.56E+07 and 1.66E+07 and 1.27E+07 | L-phenylalanine level (metabolomics signal) (replicate samples): 7.06E+06 and 6.50E+06 and 4.97E+06 | L-proline level (metabolomics signal) (replicate samples): 6.39E+07 and 5.46E+07 and 5.96E+07 | L-serine level (metabolomics signal) (replicate samples): 4.50E+06 and 4.60E+06 and 4.86E+06 | L-threonine level (metabolomics signal) (replicate samples): 8.82E+06 and 8.15E+06 and 8.77E+06 | L-tryptophan level (metabolomics signal) (replicate samples): 1.85E+06 and 1.63E+06 and 1.27E+06 | L-tyrosine level (metabolomics signal) (replicate samples): 2.13E+07 and 2.30E+07 and 1.69E+07 | L-valine level (metabolomics signal) (replicate samples): 1.59E+08 and 1.62E+08 and 1.47E+08 | dCMP level (metabolomics signal) (replicate samples): 1.62E+04 and 1.66E+04 and 1.35E+04 | dTMP level (metabolomics signal) (replicate samples): 1.10E+06 and 1.20E+06 and 9.63E+05 | glycine level (metabolomics signal) (replicate samples): 1.51E+06 and 1.66E+06 and 1.67E+06 | N-Acyl-D-aspartate (C06380) metabolite signal [1]: 6.16E+04 and 5.50E+04 and 5.26E+04 | Poly-gamma-D-glutamate (C05723) metabolite signal [1]: 4.45E+07 and 4.25E+07 and 4.46E+07 | D-Ribitol 5-phosphate (C01068) metabolite signal [2]: 1.15E+04 and 2.30E+04 and 2.25E+04 | D-glucono-1,5-lactone (C00198) metabolite signal [2]: 2.58E+05 and 2.64E+05 and 3.28E+05 | L-Noradrenaline (C00547) metabolite signal [2]: 2.02E+04 and 2.76E+04 and 1.70E+04 | Oxalosuccinate (C05379) metabolite signal [2]: 8.49E+04 and 8.94E+04 and 8.00E+04 | Pyridoxamine (C00534) metabolite signal [2]: 9.67E+03 and 8.58E+03 and 9.61E+03 | Thioredoxin disulfide (C00343) metabolite signal [2]: 2.29E+04 and 2.69E+04 and 2.77E+04 | 1-4-beta-D-Xylan (metabolite signal) [3]: 1.64E+05 and 1.40E+05 and 1.93E+05 | 2-Hydroxyglutarate/Citramalate (C02630) metabolite signal [3]: 7.84E+04 and 5.75E+04 and 5.66E+04 | 5-6-Dihydrothymine (C00906) metabolite signal [3]: 2.80E+05 and 2.87E+05 and 2.28E+05 | 5-10-Methenyltetrahydrofolate (metabolite signal) [3]: 1.54E+05 and 1.37E+05 and 1.05E+05 | 5-Hydroxyisourate (C11821) metabolite signal [3]: 4.81E+06 and 4.49E+06 and 3.27E+06 | 5-L-Glutamyl-taurine (metabolite signal) [3]: 1.49E+05 and 1.28E+05 and 1.35E+05 | 5-Oxoproline (metabolite signal) [3]: 8.83E+05 and 1.09E+06 and 7.57E+05 | (S)(+)-Allantoin (C02350) metabolite signal [3]: 7.40E+03 and 8.26E+03 and 9.04E+03 | Allantoate (C00499) metabolite signal [3]: 5.78E+05 and 5.92E+05 and 8.52E+05 | Ascorbate (metabolite signal) [3]: 7.64E+04 and 9.21E+04 and 9.25E+04 | CMP-N-acetylneuraminate (metabolite signal) [3]: 2.55E+04 and 6.91E+03 and 6.08E+03 | Carnosine (metabolite signal) [3]: 1.46E+05 and 1.52E+05 and 1.15E+05 | Citrate (C00158) metabolite signal [3]: 2.76E+04 and 1.91E+04 and 1.57E+04 | Creatine (metabolite signal) [3]: 1.37E+08 and 1.42E+08 and 1.27E+08 | Creatinine (metabolite signal) [3]: 2.18E+06 and 2.32E+06 and 1.85E+06 | Cys-Gly (metabolite signal) [3]: 7.81E+05 and 5.57E+05 and 7.70E+05 | D-Glucosamine (metabolite signal) [3]: 3.33E+05 and 2.53E+05 and 2.71E+05 | D-Glucose (C00031) metabolite signal [3]: 3.99E+06 and 4.57E+06 and 4.90E+06 | D-Ribose (C00121) metabolite signal [3]: 1.11E+05 and 8.97E+04 and 8.43E+04 | Dehydroascorbate (metabolite signal) [3]: 3.57E+04 and 4.39E+04 and 4.65E+04 | Dihydrofolate (metabolite signal) [3]: 1.44E+06 and 1.74E+06 and 1.87E+06 | Dimethylglycine (metabolite signal) [3]: 6.87E+05 and 6.86E+05 and 5.98E+05 | Diphosphate (C00013) metabolite signal [3]: 2.84E+04 and 3.52E+04 and 3.86E+04 | Fumarate (C00122) metabolite signal [3]: 9.00E+04 and 7.84E+04 and 7.19E+04 | Glutathione (C00051) metabolite signal [3]: 4.59E+07 and 3.87E+07 and 4.33E+07 | Glutathione disulfide (metabolite signal) [3]: 3.00E+05 and 9.38E+04 and 7.81E+04 | Hypoxanthine (C00262) metabolite signal [3]: 7.14E+03 and 5.93E+03 and 0.00E+00 | IMP (C00130) metabolite signal [3]: 4.51E+04 and 3.74E+04 and 4.61E+04 | Inosine (C00294) metabolite signal [3]: 6.84E+04 and 6.73E+04 and 4.20E+04 | L-Citrulline (metabolite signal) [3]: 2.71E+06 and 3.04E+06 and 2.48E+06 | L-Homoserine (metabolite signal) [3]: 2.62E+05 and 3.31E+05 and 2.39E+05 | Lactate (C01432) metabolite signal [3]: 1.75E+07 and 2.07E+07 and 1.43E+07 | Malate (C00149) metabolite signal [3]: 1.61E+05 and 9.39E+04 and 7.61E+04 | Mannitol (C00392) metabolite signal [3]: 1.83E+05 and 1.22E+05 and 1.51E+05 | N-Acetylneuraminate (metabolite signal) [3]: 1.66E+04 and 1.46E+04 and 8.13E+03 | N-Glycoloyl-neuraminate (metabolite signal) [3]: 7.64E+04 and 8.68E+04 and 1.14E+05 | NAD+ (C00003) metabolite signal [3]: 5.29E+04 and 5.95E+04 and 9.85E+04 | Nicotinamide (C00153) metabolite signal [3]: 2.02E+07 and 2.16E+07 and 1.82E+07 | Ornithine (metabolite signal) [3]: 1.75E+06 and 1.63E+06 and 1.64E+06 | Oxaloacetate (C00036) metabolite signal [3]: 3.72E+04 and 4.43E+04 and 3.47E+04 | Phosphoserine (metabolite signal) [3]: 2.32E+04 and 2.57E+04 and 1.04E+04 | Putrescine (metabolite signal) [3]: 4.24E+04 and 2.70E+04 and 3.11E+04 | Pyridoxal (C00250) metabolite signal [3]: 4.26E+04 and 5.24E+04 and 7.64E+04 | Pyruvate (C00022) metabolite signal [3]: 2.17E+06 (2×) and 1.35E+06 | S-Glutathionyl-L-cysteine (metabolite signal) [3]: 2.24E+05 and 8.00E+04 and 6.92E+04 | Sedoheptulose 1-phosphate (C06222) metabolite signal [3]: 2.39E+04 and 1.32E+04 and 9.55E+03 | Spermidine (metabolite signal) [3]: 6.66E+06 and 5.53E+06 and 5.68E+06 | Spermine (metabolite signal) [3]: 8.48E+06 and 7.61E+06 and 6.89E+06 | Succinate (C00042) metabolite signal [3]: 3.87E+04 and 5.97E+04 and 7.05E+04 | Thymidine (C00214) metabolite signal [3]: 1.24E+04 and 9.43E+03 and 3.23E+03 | UDP (C00015) metabolite signal [3]: 8.83E+04 and 9.94E+04 and 8.18E+04 | UDP-N-acetyl-D-glucosamine (metabolite signal) [3]: 8.06E+03 and 2.61E+03 and 5.41E+03 | UDP-glucose (C00029) metabolite signal [3]: 9.76E+03 and 1.91E+03 and 5.75E+03 | Urate (C00366) metabolite signal [3]: 3.58E+04 and 2.84E+04 and 2.03E+04 | Xanthine (C00385) metabolite signal [3]: 7.82E+04 and 7.20E+04 and 8.31E+04 | alpha-D-Glucosamine 1-phosphate (metabolite signal) [3]: 9.63E+05 and 8.22E+05 and 5.48E+05 | alpha-D-Ribose 1-phosphate (C00620) metabolite signal [3]: 4.34E+04 and 2.92E+04 and 1.97E+04 | gamma-Glutamyl-gamma-aminobutyrate (metabolite signal) [3]: 5.87E+04 and 5.26E+04 and 3.36E+04 | gamma-L-Glutamyl-D-alanine (metabolite signal) [3]: 4.70E+04 and 4.49E+04 and 2.74E+04 | gamma-L-Glutamyl-L-cysteine (metabolite signal) [3]: 4.20E+04 and 3.03E+04 and 3.96E+04
